Earlier results as cited in US20180214412A1, “IMMEDIATE RELEASE CANNABINOID FORMULATIONS” (CannTab Therapeutics Limited, priority 2017, published 2018).

Conditions: after administration

CCCCCc1cc(O)c2c(c1)OC(C)(C)[C@@H]1CCC(C)=C[C@@H]21 [Dronabinol, (−)-trans-Δ9-tetrahydrocannabinol]
duration of appetite stimulant effect: ≥ 24 h
